Test results: patent publication US20240287138A1, “CYCLIC PEPTIDES FOR INHIBITING TNF RECEPTOR 1 ACTIVITY” (Merck Sharp & Dohme LLC, priority 2023, published 2024)
Numbered stars: 1 amine (or outer) side, 2 acyl side, 3 side chain; on linkers, the order of the positions; unused ones are H or OH. Bridge positions count the residues as written; N and C are the ends. Square brackets hold non-standard residues; d marks the D form. Peptide text beside a SMILES is read from it. Trp(βS-Me,7-OMe) = COc1cccc2c([C@H](C)[C@H](N)C(=O)O)c[nH]c12; Trp(7-CN) = N#Cc1cccc2c(C[C@H](N)C(=O)O)c[nH]c12; Trp(7-Cl) = N[C@@H](Cc1c[nH]c2c(Cl)cccc12)C(=O)O; Phe(4-CONH2) = NC(=O)c1ccc(C[C@H](N)C(=O)O)cc1; Phe(4-COOH) = N[C@@H](Cc1ccc(C(=O)O)cc1)C(=O)O; 4Pal(3S-Me) = C[C@@H](c1ccncc1)[C@H](N)C(=O)O; Trp(7-aza) = N[C@@H](Cc1c[nH]c2ncccc12)C(=O)O; X1 = O=C([C@@H]1CC[C@H](N[*:1])C1)[*:2]; X68 = O=C([C@@H]1CSCCN1[*:1])[*:2]; Pip(4-aza) = O=C(O)[C@@H]1CNCCN1; 4Pal = N[C@@H](Cc1ccncc1)C(=O)O; NMeE = CN[C@@H](CCC(=O)O)C(=O)O; dHyp = O=C(O)[C@H]1C[C@H](O)CN1; X7 = CC[C@@H](C(=O)[*:1])[*:2]; Ahp(2) = CCCCC[C@H](N)C(=O)O; αMeS = C[C@](N)(CO)C(=O)O; Nle = CCCC[C@H](N)C(=O)O; dNMeA = CN[C@H](C)C(=O)O; Sar = CNCC(=O)O

Molecular target: T1, human soluble TNFR1 (sTNFR1) (Homo sapiens, UniProt P19438)
T1 construct: made in house; host or cells: Sf21 (baculovirus)
T1 sequence (P19438 with tags, fused parts or gaps): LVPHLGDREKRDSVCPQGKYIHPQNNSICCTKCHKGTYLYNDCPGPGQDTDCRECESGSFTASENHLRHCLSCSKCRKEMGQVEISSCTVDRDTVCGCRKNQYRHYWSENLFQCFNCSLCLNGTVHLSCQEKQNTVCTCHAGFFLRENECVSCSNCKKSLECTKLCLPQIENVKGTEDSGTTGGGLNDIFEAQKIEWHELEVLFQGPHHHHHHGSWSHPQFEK
Assay: Human sTNFR1-peptide displacement assay (LanthaScreen Eu TR-FRET binding assay)
Experimental: A. Procedure for Human sTNFR1-Peptide Displacement Assay
The affinity was determined using LanthaScreen Eu-based time-resolved fluorescence resonance energy transfer (TR-FRET)-based binding assay.
A TR-FRET assay measuring the displacement of biotinylated peptide SEQ ID NO. 1 from human soluble TNFR1 (sTNFR1) in a pre-formed complex by a macrocyclic peptide yields the affinity (Kd^app) of the cyclic peptide for sTNFR1. The reagents for the assay include: the C′-terminally 6His-tagged sTNFR1 (residues 1-211) protein purified from a Sf21 baculovirus expression system, the biotin-tagged B0372 peptide described in section “Preparation of Final Compounds”, part E, the LanthaScreen™ anti-His Tag Europium donor (Life Technologies Corporation (San Diego, CA), cat. #PV5597), and a streptavidin-conjugate Alexa Fluor™ 647 acceptor (Invitrogen (Waltham, MA), cat. #S32357). Time-resolved TR-FRET is achieved when sTNFR1 is bound to biotinylated peptide SEQ ID NO. 1 through coupling of the donor and acceptor FRET pair.
100 nM biotinylated peptide SEQ ID NO. […] 100 nM biotinylated peptide SEQ ID NO. 1 was chosen as it reflects the ˜Kd for this complex. After 30 min at ambient temperature, each test peptide (2 mM stock in DMSO) is titrated in a 20 point, ˜3-fold discrete dose-response using an acoustic-dispense liquid handler. Specifically, 80 nL of peptide/DMSO is transferred into a ProxiPlate-384 Plus 384-well assay plate (PerkinElmer, cat. #6008289). To this plate, 8 μL of the previously formed sTNFR 1-biotinylated peptide SEQ ID NO. 1 complex is added and allowed to reach binding equilibrium with the test peptide at ambient temperature for 90 min.
The TR-FRET signal is measured with the following EnVision® settings: excitation laser at 337 nm; emission1=615 nm, emission2=665 nm, LANCE/DELFIA dichroic mirror, delay time=[…]. The signal of each well is determined as the ratio of the emission at 665 nm to that at 615 nm. Percent displacement is determined by normalization to control wells containing DMSO (0%) or a saturating concentration of a displaceable peptide (100%). The %-effect as a function of peptide concentration is fit to a five-parameter logistic fit based on the Morrison equation to account for tight binding kinetics.

SMILES	IC50 [nM]	Kd [nM]
CCCC[C@@H]1NC(=O)[C@H](CC)SC[C@@H](C(N)=O)NC(=O)[C@H]([C@@H](C)c2c[nH]c3c(OC)cccc23)NC(=O)CN(C)C(=O)[C@H](Cc2ccc(O)cc2)NC(=O)[C@H](Cc2ccc(C(N)=O)cc2)NC(=O)[C@](C)(CO)NC(=O)[C@H](Cc2c[nH]c3c(Cl)cccc23)NC(=O)[C@H](Cc2ccncc2)NC(=O)[C@H](CC(N)=O)NC(=O)[C@H](CCC(=O)O)N(C)C(=O)[C@H](Cc2c[nH]c3ccccc23)NC(=O)[C@@H]2CSCCN2C(=O)[C@H](Cc2ccncc2)NC1=O [SEQ ID NO. 246] ([Nle][4Pal][X68]W[NMeE]N[4Pal][Trp(7-Cl)][αMeS][Phe(4-CONH2)]Y[Sar][Trp(βS-Me,7-OMe)]C-NH2; linker N-14 via X7)	1.15	–
CCCC[C@@H]1NC(=O)CSC[C@@H](C(=O)NCC(=O)N[C@@H](CCC(=O)O)C(=O)N[C@@H](CCC(=O)O)C(N)=O)NC(=O)[C@H]([C@@H](C)c2c[nH]c3c(OC)cccc23)NC(=O)CN(C)C(=O)[C@H](Cc2ccc(O)cc2)NC(=O)[C@H](Cc2ccc(C(=O)O)cc2)NC(=O)[C@](C)(CO)NC(=O)[C@H](Cc2c[nH]c3c(Cl)cccc23)NC(=O)[C@H](Cc2ccncc2)NC(=O)[C@H](CC(N)=O)NC(=O)[C@H](CCC(=O)O)N(C)C(=O)[C@H](Cc2c[nH]c3ncccc23)NC(=O)[C@@H]2CNCCN2C(=O)[C@H](Cc2ccncc2)NC1=O [SEQ ID NO. 255] ({CH2CO}-[Nle][4Pal][Pip(4-aza)][Trp(7-aza)][NMeE]N[4Pal][Trp(7-Cl)][αMeS][Phe(4-COOH)]Y[Sar][Trp(βS-Me,7-OMe)]CGEE-NH2; thioether N-14)	0.7	1.01
CCCC[C@@H]1NC(=O)CSC[C@@H](C(N)=O)NC(=O)[C@H]([C@@H](C)c2c[nH]c3c(OC)cccc23)NC(=O)CN(C)C(=O)[C@H](Cc2ccc(O)cc2)NC(=O)[C@H](Cc2ccc(C(=O)O)cc2)NC(=O)[C@](C)(CO)NC(=O)[C@H](Cc2c[nH]c3c(Cl)cccc23)NC(=O)[C@H](Cc2ccncc2)NC(=O)[C@H](CC(N)=O)NC(=O)[C@H](CCC(=O)O)N(C)C(=O)[C@H](Cc2c[nH]c3ncccc23)NC(=O)[C@@H]2CNCCN2C(=O)[C@H](Cc2c[nH]cn2)NC1=O [SEQ ID NO. 264] ({CH2CO}-[Nle]H[Pip(4-aza)][Trp(7-aza)][NMeE]N[4Pal][Trp(7-Cl)][αMeS][Phe(4-COOH)]Y[Sar][Trp(βS-Me,7-OMe)]C-NH2; thioether N-14)	1.49	–
CCCC[C@@H]1NC(=O)CSC[C@@H](C(N)=O)NC(=O)[C@H]([C@@H](C)c2c[nH]c3c(OC)cccc23)NC(=O)[C@@H](C)N(C)C(=O)[C@H](Cc2ccc(O)cc2)NC(=O)[C@H](Cc2ccc(C(=O)O)cc2)NC(=O)[C@](C)(CO)NC(=O)[C@H](Cc2c[nH]c3c(Cl)cccc23)NC(=O)[C@H](Cc2ccncc2)NC(=O)[C@H](CC(N)=O)NC(=O)[C@H]2CCCN2C(=O)[C@H](Cc2c[nH]c3ccccc23)NC(=O)[C@@H]2CNCCN2C(=O)[C@H](Cc2ccncc2)NC1=O [SEQ ID NO. 276] ({CH2CO}-[Nle][4Pal][Pip(4-aza)]W[dP]N[4Pal][Trp(7-Cl)][αMeS][Phe(4-COOH)]Y[dNMeA][Trp(βS-Me,7-OMe)]C-NH2; thioether N-14)	2.41	–
CCCCC[C@@H]1NC(=O)[C@@H]2CC[C@@H](C2)NC(=O)[C@H]([C@@H](C)c2c[nH]c3c(OC)cccc23)NC(=O)CN(C)C(=O)[C@H](Cc2ccc(C(N)=O)cc2)NC(=O)[C@H](Cc2ccc(C(N)=O)cc2)NC(=O)[C@](C)(CO)NC(=O)[C@H](Cc2c[nH]c3c(C#N)cccc23)NC(=O)[C@H](Cc2ccc(C(=O)O)cc2)NC(=O)[C@H](CC(N)=O)NC(=O)[C@H]2C[C@H](O)CN2C(=O)[C@H](Cc2c[nH]c3ccccc23)NC(=O)[C@H](CCC(=O)O)NC(=O)[C@H]([C@@H](C)c2ccncc2)NC1=O [SEQ ID NO. 280] (cyclo([Ahp(2)][4Pal(3S-Me)]EW[dHyp]N[Phe(4-COOH)][Trp(7-CN)][αMeS][Phe(4-CONH2)][Phe(4-CONH2)][Sar][Trp(βS-Me,7-OMe)][X1]))	–	0.25
